From US20250000979A1, “TRIPLET-TRIPLET ENERGY TRANSFER WITH LIGHT EXCITATION AT LONG WAVELENGTHS AND METHODS THEREOF” (priority 2023, published 2025)
“And” between values parts separate entries of the source, which are not always exact repeats. Identical values can stand only once. Marks after values point to notes of the source that are not given here.

Columns and labels:
[1] = In vivo biodistribution by IVIS fluorescence imaging; parameters: species or system BALB/c nude mice; conditions: intravenous, DiR 100 μg/kg, HeLa tumor-bearing mice
Description: The tumors and major organs were excised for ex vivo fluorescence imaging 24-h post injection. […] It should be noted that the prodrug can be selectively activated in tumors by NIR light while those nanoparticles in the normal tissues and organs will not be activated, which can alleviate the side effects of chemotherapy.
BALB/c nude mice (female, 4 weeks, 15-20 g) were obtained from the Experimental Animal Center of University with access to food and water ad libitum. The animal experiment and procedures were approved by the Committee on the Use of Live Animals in Teaching & Research (CULATR), The University of Hong Kong. (Protocol No. 4381-17).
HeLa tumor-bearing mice was obtained by subcutaneously injecting HeLa cells for tumor implantation. HeLa cancer cells were collected by cell culture and trypsin digestion. The cells were washed by PBS and resuspended in DMEM medium without serum, in which collagen and Matrigel were added. 2×10^6 cells were dispersed in 100 μL mixture, which was subcutaneously injected into the mice at underarm area. […]
The biodistribution of free drug or nanoparticles in the HeLa tumor-bearing mice was measured by an in vivo fluorescence imaging system. […] The in vivo fluorescence imaging was performed at 1, 2, 8 and 24 h post injection and anesthesia at each time point. […]

[2] = Photoreaction quantum yields and cross sections (HPLC, Reinecke's salt actinometry); type: physicochemical
Experimental: Quantum yields of the photoreactions (Φ) are defined as:
The number of reacted molecules (e.g., consumption of prodrugs or generation of free drugs) were determined by HPLC. The absorbed photon number was determined by Reinecke's salt actinometry at excitation wavelengths of 530 nm and 690 nm^35, 36. The power densities were 50 mW/cm^2 (530 nm) and 100 mW/cm^2 (690 nm).

[3] = Photolysis of BODIPY prodrugs in solution, analysed by HPLC; type: physicochemical
Experimental: BODIPY photocage was conjugated with the free drug molecules to form photoactivable prodrugs with photolabile linkages, including ester and carbamate. The light illumination was performed with a NIR lamp, of which the parameters were 100 mW/cm^2, 690 nm for 5 min, in a N2-saturated solution containing 0.1 equiv. of Os(bptpy)2^2+ and 1 equiv. of prodrugs. […] In addition, the photocage was conjugated with drug molecules with amine groups to produce prodrugs with photolabile carbamate bonds.
The photolysis efficiency of BODIPY prodrugs were compared in different conditions, including different excitation wavelengths (690 nm or 530 nm), different ratios of Os(bptpy)2^2+, and different oxygen contents. […] The solvent was 88% methanol mixed by 10% dichloromethane and 2% acetone. For the N2-saturated groups, after dissolving the molecules, the solution was degassed with a vacuum pump for 10 min followed by gentle N2 blowing. After light irradiation, the resulted mixtures were refilled to 100 μL with methanol to avoid the error caused by solvent evaporation. The resulted solution was loaded onto the sampler and analyzed by high-performance liquid chromatography. An elution method was used to separate free drug, BODIPY photocage and prodrug on the C18 column.

[4] = red-light irradiation (625 nm), platinum photosensitizer PtTPBP; ref 17 / US2021/0228719; cited from earlier work
[5] = in toluene, calculated by TD-DFT, referred to previous studies; cited from earlier work
[6] = Encapsulation efficiency and loading capacity of Os/BC NP (HPLC); type: physicochemical; conditions: component of Os/BC NP
Experimental: Flash nanoprecipitation method was used to fabricate the photosensitizer/prodrug-loading nanoparticles. […] Different formulations (Os NPs, BC NPs and Os/BC NPs) were then prepared with optimized ratios of components. Briefly, 224 μL of the mixed stock solution was added into 1.8 mL N2-saturated water under vortexing. The resulted solutions were added to dialysis bags (MW: 3400 Da) and dialyzed against 4 L of water for 24 h. The water out of dialysis bag was renewed every 8 h. The resulted solution of NPs was collected and filtrated with 220 nm filter. Finally, the NPs solutions were concentrated by ultrafiltration (Mw=100 kDa, 2000×g, 10 min) and stored at 4° C. until use. The concentrations of each component were measured by using HPLC. Loading capacity and encapsulation efficiency were calculated as follow: […]

[7] = Photophysical properties (UV-Vis absorption, emission, energy levels); type: physicochemical
Description: The absorption peak at about 492 nm is identified as the singlet metal-to-ligand charge transfer (^1MLCT) absorption, also termed as singlet-singlet (S-S) absorption. […] The two twistable bromophenyl groups of the bromophenyl terpyridine ligands extend the S-T absorption from 650 nm to 750 nm with increased absorption coefficient.
CombiFlash Rf chromatography instrument was purchased from Teledyne ISCO (Lincoln, USA) for chemical purification. Light sources used in this study were purchased from Yuanming Laser (Ningbo, China) and Mightex (CA, USA). The purity verification and photolysis study were conducted with a high-performance liquid chromatography (HPLC) system (Agilent technologies, 1260), attached with C-18 columns which were obtained from Agilent (Santa Clara, California, United States). Nuclear magnetic resonance (NMR) spectroscopy was collected by Bruker AVANCE III HD 500 spectrometer (MA, US). Fluorescence, phosphorescence and UV-vis spectra were collected by a SpectraMax M4 microplate reader (Molecular Devices, CA, US). The particle size and surface charge were recorded by a dynamic light scattering (DLS) device, Zetasizer Nano-ZS90 (Malvern instruments, UK). Transmission electron microscope (TEM) imaging was conducted on a Hitachi HT7700 TEM (Tokyo, Japan). ACEA NovoCyte Quanteon flow cytometer (ACEA Biosciences, CA, USA) was used for flow cytometry. In vivo and ex vivo imaging of the mice were conducted with an In Vivo Imaging System (PerkinElmer, USA). Devices for animal study like including balance and vernier caliper were kindly provided by The Centre for Comparative Medicine Research (CCMR), The University of Hong Kong.

[8] = λex 690 nm, 0.1 eq Os, N2, ε of Os(bptpy)2·2PF6 at 688 nm
[9] = 690 nm, 100 mW/cm^2, 5 min, 0.1 equiv. Os(bptpy)2^2+, N2-saturated solution

Row | Molecule | Quantum yield of drug release Φr ([2]; λex 690 nm, 0.1 eq Os, N2) [%] | Quantum yield of prodrug photolysis Φp ([2]; λex 690 nm, 0.1 eq Os, N2) [%] | Cross section Φpε(λex) [2, 8] [M⁻¹ cm⁻¹] | Cross section Φrε(λex) [2, 8] [M⁻¹ cm⁻¹] | photolytic yield (yield of free drug) [3, 9] [%] | other results
1 | CCCCCCCCCCCCCCCCCCN1C(=CC=CC=CC=CC2=[N+](CCCCCCCCCCCCCCCCCC)c3ccccc3C2(C)C)C(C)(C)c2ccccc21.[I-] [DiR, 1,1′-dioctadecyl-3,3,3′,3′-tetramethylindotricarbocyanine iodide] | – | – | – | – | – | time within which the free dye was completely metabolized [1]: ≤ 8 h
2 | CC1=C(I)C(C)=[N+]2C1=C(COC(=O)/C=C/c1cccc(OCc3ccccc3)c1)c1c(C)c(I)c(C)n1[B-]2(C)C [BODIPY-BCA, BODIPY-benzyloxycinnamic acid] | 0.75 ± 0.03 | 0.80 ± 0.02 | 213.33 ± 7.55 | 200.64 ± 7.30 | 87.12±3.17 | –
3 | CCCCN(C(=O)OCC1=C2C(C)=C(I)C(C)=[N+]2[B-](C)(C)n2c(C)c(I)c(C)c21)c1ccc(C(=O)OCCN(C)C)cc1 [BODIPY-TCI, BODIPY-tetracaine] | 0.36 ± 0.04 | 0.81 ± 0.06 | 215.84 ± 15.71 | 95.21 ± 10.62 | 41.34±4.61 | –
4 | CC1=C(I)C(C)=[N+]2C1=C(COC(=O)NCCc1ccc(O)c(O)c1)c1c(C)c(I)c(C)n1[B-]2(C)C [BODIPY-DPA, BODIPY-dopamine] | 0.60 ± 0.02 | 0.86 ± 0.01 | 228.90 ± 3.59 | 159.00 ± 4.58 | 69.04±1.99 | –
5 | COc1ccc2c(c1)c(CC(=O)OCC1=C3C(C)=C(I)C(C)=[N+]3[B-](C)(C)n3c(C)c(I)c(C)c31)c(C)n2C(=O)c1ccc(Cl)cc1 [BODIPY-IDM, BODIPY-indomethacin] | 0.60 ± 0.04 | 0.86 ± 0.02 | 229.15 ± 5.23 | 158.79 ± 10.80 | 68.95±4.69 | –
6 | BODIPY-chlorambucil [BODIPY-Cb] | 0.73 ± 0.04 | 0.84 ± 0.01 | 222.80 ± 2.90 | – | 84.17±4.21 | max. yield of free Cb, one-photon upconversion-like photolysis [4]: 41.74%; Cross section Φpε(λex) ([2]; λex 530 nm, Air): 2292.95 ± 730.79 M⁻¹ cm⁻¹; Cross section Φrε(λex) ([2]; λex 530 nm, Air): 171.63 ± 24.81 M⁻¹ cm⁻¹; Quantum yield of prodrug photolysis Φp ([2]; λex 530 nm, Air): 3.42 ± 1.09%; Cross section Φpε(λex) ([2]; λex 530 nm, N2): 16017.11 ± 2044.88 M⁻¹ cm⁻¹; Cross section Φrε(λex) ([2]; λex 530 nm, N2): 6016.62 ± 1895.28 M⁻¹ cm⁻¹; Quantum yield of drug release Φr ([2]; λex 530 nm, N2): 6.73 ± 2.12%; Quantum yield of prodrug photolysis Φp ([2]; λex 530 nm, N2): 23.89 ± 3.05%; Cross section Φpε(λex) ([2]; λex 690 nm, 0.1 eq Os, Air): 1.87 ± 1.11 M⁻¹ cm⁻¹; Cross section Φrε(λex) ([2]; λex 690 nm, 0.1 eq Os, Air): 0.49 ± 0.11 M⁻¹ cm⁻¹; photocleavage in air-saturated solution ([3]; 530 nm green light, air-saturated): retarded; decomposition of prodrug and generation of free Cb in air-saturated solution ([3]; 690 nm, with Os(bptpy)2^2+, air-saturated): mostly retarded; Energy level S1 state [5]: 2.18 eV and 2.18^f eV; Energy level T1 state [5]: 1.52 eV and 1.52^g eV; T1 lifetime [5]: 21.82^e μs; Loading Capacity [6]: 0.27%; E (absorption coefficient at λabs, max) ([7]; at 543 nm): 89400 M⁻¹ cm⁻¹; λabs, max ([7]; dichloromethane solution with 2% acetone, 10 μM): 543 nm; λem, max ([7]; λex = 543 nm): 570^b nm
7 | CC1=C(I)C(C)=[N+]2C1=C(COC(=O)NCCc1ccc(O)cc1)c1c(C)c(I)c(C)n1[B-]2(C)C [BODIPY-TyrA, BODIPY-tyramine] | 0.40 ± 0.02 | 0.84 ± 0.02 | 223.12 ± 6.28 | 107.25 ± 5.46 | 46.57±2.37 | –
8 | COc1ccc(CCNC(=O)OCC2=C3C(C)=C(I)C(C)=[N+]3[B-](C)(C)n3c(C)c(I)c(C)c32)cc1OC [BODIPY-HVA, BODIPY-homoveratrylamine] | 0.64 ± 0.03 | 0.85 ± 0.04 | 224.98 ± 9.83 | 170.82 ± 9.14 | 74.17±3.97 | –
9 | CC1=C(I)C(C)=[N+]2C1=C(COC(=O)C(C)c1ccc(CC(C)C)cc1)c1c(C)c(I)c(C)n1[B-]2(C)C (centres unmarked) [BODIPY-IBF, BODIPY-ibuprofen] | 0.42 ± 0.04 | 0.85 ± 0.04 | 226.34 ± 10.96 | 111.67 ± 10.81 | 48.49±4.69 | –
10 | CC1=C(I)C(C)=[N+]2C1=C(COC(=O)Cc1cccc3c(=O)c4ccc(C)c(C)c4oc13)c1c(C)c(I)c(C)n1[B-]2(C)C [BODIPY-DMXAA, BODIPY-vadimezan] | 0.71 ± 0.06 | 0.87 ± 0.01 | 230.30 ± 1.43 | 190.05 ± 16.63 | 82.52±7.22 | prodrug decomposition [3, 9]: completely consumed
